According to patent US20190255091A1, “RNAi AGENTS FOR [sequence] B VIRUS INFECTION” (priority 2016, published 2019):

Columns and labels:
[1] = test system: Hepatitis B Virus (HBV); assay: Serum HBsAg levels in pHBV model mice (ELISA); type: in vivo; set-up: key to Average HBsAg levels normalized to pre-treatment (day −1) and PBS control / Average HBsAg levels normalized to pre-treatment and PBS control: fraction of pre-treatment level, relative to PBS control mean; details: single s.c. injection day 1, Example 7
From the text: (§1) Six to eight-week-old female NOD.CB17-Prkdscid/NcrCrl (NOD-SCID) mice were transiently transfected in vivo with MC-HBV1.3 by hydrodynamic tail vein injection (Yang P L et al. “Hydrodynamic injection of viral DNA: a mouse model of acute hepatitis B virus infection,” PNAS USA 2002 Vol. 99: p. 13825-13830), administered 30 to 45 days prior to administration of an HBV RNAi agent or control. MC-HBV1.3 is a plasmid-derived minicircle that contains the same terminally redundant human hepatitis B virus sequence HBV1.3 as in plasmid pHBV1.3 and in the HBV1.3.32 transgenic mice (GenBank accession #V01460) (Guidotti L G et al., “High-level hepatitis B virus replication in transgenic mice,” J Virol 1995 Vol. 69, p 6158-6169.). 5 or 10 μg MC-HBV1.3 in Ringer's Solution in a total volume of 10% of the animal's body weight was injected into mice via tail vein to create pHBV model of chronic HBV infection. The solution was injected through a 27-gauge needle in 5-7 seconds as previously described (Zhang G et al., “High levels of foreign gene expression in hepatocytes after tail vein injection of naked plasmid DNA.” Human Gene Therapy 1999 Vol. 10, p 1735-1737.). At pre-dose (either day 1 pre-dose, day −1, or day −2), Hepatitis B surface antigen (HBsAg) HBsAg expression levels in serum were measured by ELISA and the mice were grouped according to average HBsAg expression levels.
(§2) HBV expression levels were normalized to pre-administration expression levels and to control mice injected with phosphate buffered saline (“PBS”).
Mice were anesthetized with 2-3% isoflurane and blood samples were collected from the submandibular area into serum separation tubes (Sarstedt AG & Co., Nümbrecht, Germany). Blood was allowed to coagulate at ambient temperature for 20 min. The tubes were centrifuged at 8,000×g for 3 min to separate the serum and stored at 4° C.
Serum was collected and diluted 10 to 8000-fold in PBS containing 5% nonfat dry milk. […] HBsAg levels were determined with a GS HBsAg EIA 3.0 kit (Bio-Rad Laboratories, Inc., Redmond, Wash.) as described by the manufacturer. Recombinant HBsAg protein, ayw subtype, also diluted in nonfat milk in PBS, was used as a primary standard (Aldevron).
HBsAg expression for each animal was normalized to the control group of mice injected with PBS in order to account for the non-treatment related decline in expression of MC-HBV1.3. First, the HBsAg level for each animal at a time point was divided by the pre-treatment level of expression in that animal in order to determine the ratio of expression “normalized to pre-treatment”. Expression at a specific time point was then normalized to the control group by dividing the “normalized to pre-treatment” ratio for an individual animal by the average “normalized to pre-treatment” ratio of all mice in the normal PBS control group.

[2] = test system: Hepatitis B Virus (HBV); assay: Serum HBeAg levels in pHBV model mice (ELISA); type: in vivo; set-up: key to Average HBeAg levels normalized to pre-treatment and PBS control: ratio to pre-treatment level, divided by PBS control ratio; details: for Average HBeAg fold knockdown normalized to pre-treatment and PBS control / Average HBeAg levels normalized to pre-treatment and PBS control: single s.c. injection day 1, Example 7; for Average HBeAg levels normalized to pre-treatment and PBS control: pooled serum
From the text: as §1, §2
HBeAg analysis was performed with the HBeAg enzyme linked immunosorbent assay (ELISA) as described by the manufacturer (DiaSorin) using serum diluted 4- to 20-fold in 5% nonfat dry milk. The amount of antigen was determined in the linear range of the assay and quantitated against HBeAg protein standards (Fitzgerald Industries International, catalog #30-AH18, Acton, Mass.).
HBeAg expression for each animal was normalized to the control group of mice injected with PBS in order to account for the non-treatment related decline in expression of MC-HBV1.3. For evaluation of HBeAg in serum, HBeAg is analyzed from pooled group or subgroup serum samples. First, the HBeAg level for each pooled group or subgroup was divided by the pre-treatment level of expression in the same group or subgroup in order to determine the ratio of expression “normalized to pre-treatment”. Expression at a specific time point was then normalized to the control group by dividing the “normalized to pre-treatment” ratio for a group or subgroup by the average “normalized to pre-treatment” ratio of all samples from the normal PBS control group.

## AD04982: HBV RNAi agent duplex AM06464-AS/AM06150-SS (antisense UACCAAUUUAUGCCUACAGCC; sense GGCUGUAGGCAUAAAUUGGUA; chemistry not fully specified)
[1]; Day 8, 1.0 mg/kg
  Average HBsAg levels normalized to pre-treatment (day −1) and PBS control: 0.519 ± 0.058
[1]; Day 8, 2.0 mg/kg
  Average HBsAg levels normalized to pre-treatment (day −1) and PBS control: 0.342 ± 0.062
[1]; Day 15, 1.0 mg/kg
  Average HBsAg levels normalized to pre-treatment (day −1) and PBS control: 0.375 ± 0.012
[1]; Day 15, 2.0 mg/kg
  Average HBsAg levels normalized to pre-treatment (day −1) and PBS control: 0.255 ± 0.046
[1]; Day 22, 1.0 mg/kg
  Average HBsAg levels normalized to pre-treatment (day −1) and PBS control: 0.422 ± 0.046
[1]; Day 22, 2.0 mg/kg
  Average HBsAg levels normalized to pre-treatment (day −1) and PBS control: 0.272 ± 0.122
[1]; Day 29, 1.0 mg/kg
  Average HBsAg levels normalized to pre-treatment (day −1) and PBS control: 0.525
[1]; Day 29, 2.0 mg/kg
  Average HBsAg levels normalized to pre-treatment (day −1) and PBS control: 0.314
[2]; Day 8, 1.0 mg/kg
  Average HBeAg fold knockdown normalized to pre-treatment and PBS control: 2.1 Fold KD
  Average HBeAg levels normalized to pre-treatment and PBS control: 0.471
[2]; Day 8, 2.0 mg/kg
  Average HBeAg fold knockdown normalized to pre-treatment and PBS control: 3.0 Fold KD
  Average HBeAg levels normalized to pre-treatment and PBS control: 0.335
[2]; Day 15, 1.0 mg/kg
  Average HBeAg fold knockdown normalized to pre-treatment and PBS control: 2.4 Fold KD
  Average HBeAg levels normalized to pre-treatment and PBS control: 0.424
[2]; Day 15, 2.0 mg/kg
  Average HBeAg fold knockdown normalized to pre-treatment and PBS control: 3.2 Fold KD
  Average HBeAg levels normalized to pre-treatment and PBS control: 0.310
[2]; Day 22, 1.0 mg/kg
  Average HBeAg fold knockdown normalized to pre-treatment and PBS control: 1.8 Fold KD
  Average HBeAg levels normalized to pre-treatment and PBS control: 0.562
[2]; Day 22, 2.0 mg/kg
  Average HBeAg fold knockdown normalized to pre-treatment and PBS control: 2.4 Fold KD
  Average HBeAg levels normalized to pre-treatment and PBS control: 0.411
[2]; Day 29, 1.0 mg/kg
  Average HBeAg fold knockdown normalized to pre-treatment and PBS control: 2.0 Fold KD
  Average HBeAg levels normalized to pre-treatment and PBS control: 0.513
[2]; Day 29, 2.0 mg/kg
  Average HBeAg fold knockdown normalized to pre-treatment and PBS control: 2.3 Fold KD
  Average HBeAg levels normalized to pre-treatment and PBS control: 0.442
[2]; Day 36, 1.0 mg/kg
  Average HBeAg fold knockdown normalized to pre-treatment and PBS control: 1.4 Fold KD
  Average HBeAg levels normalized to pre-treatment and PBS control: 0.705
[2]; Day 36, 2.0 mg/kg
  Average HBeAg fold knockdown normalized to pre-treatment and PBS control: 2.0 Fold KD
  Average HBeAg levels normalized to pre-treatment and PBS control: 0.500
[2]; Example 7 Group D, 2.0 mg/kg AD04982, day 15
  fold decrease of HBeAg: 3.2 fold
